Test results taken from US9572787B2, “Inhibition of renal fibrosis” (Rhode Island Hospital, priority 2011, dated 2017).

Test system: obstructive kidney (UUO)
Assay: UUO obstructive nephropathy model, single dose of suramin immediately after ureteral ligation
Type: in vivo, mouse
Method: UUO and Remnant Kidney Models and Suramin Treatment. The UUO model was established in male C57 back mice that weighed 20-25 g (Jackson Laboratory, Bar Harbor, Me.) as described in our previous study. Briefly, the abdominal cavity was exposed via a midline incision and the left ureter was isolated and ligated. The contralateral kidney was used as controls. […] Six mice were used in each group.
Immunoblot Analysis. Immunoblot analysis of NRK-49F cells and tissue samples were conducted as described previously. The densitometry analysis of immunoblot results was conducted by using NIH Image software (National Institutes of Health, Bethesda, Md.).
Immunofluorescent and Immunohistochemical Staining Immunofluorescent and immunohistochemical staining was performed according to the procedure described in our previous studies. For assessment of renal fibrosis, masson trichrome staining was performed according to the protocol provided by the manufacture (Sigma, St. Louis, Mo.). The collagen tissue area (blue color) was quantitatively measured using Image Pro-Plus software (Media-Cybernetics, Silver Spring, Md., USA) by drawing a line around the perimeter of positive staining area, and the average ratio to each microscopic field (400×) was calculated and graphed.
Quantitative Real-Time PCR. The procedure for quantitative qRT-PCR and the primers used for all measurements have been described previously. Briefly, total RNA from mouse kidney tissue was extracted using RNeasy Kit (QIAGEN, Valencia, Calif.). RNA (1 μg) was reverse transcribed using the AMV First Strand cDNA synthesis kit (Roche Diagnostics Corporation, Indianapolis, Ind.) and random oligodeoxynucleotide primers. Then, real time qRT-PCR amplifications were performed. Relative mRNA abundance was determined from the nanogram ratios of specific mRNA to 18S ribosomal RNA measured in the same samples, and fold change was calculated relative to the group of sham-operated mice with vehicle treatment. Template-free reactions for each pair of primers were also included as controls.

[1] = 1 mg/kg i.p. single dose, day 7
[2] = 5 mg/kg i.p. single dose, day 7
[3] = 10 mg/kg i.p. single dose, day 7
[4] = 20 mg/kg i.p. single dose, 21 days after UUO injury

Cc1ccc(C(=O)Nc2ccc(S(=O)(=O)O)c3cc(S(=O)(=O)O)cc(S(=O)(=O)O)c23)cc1NC(=O)c1cccc(NC(=O)Nc2cccc(C(=O)Nc3cc(C(=O)Nc4ccc(S(=O)(=O)O)c5cc(S(=O)(=O)O)cc(S(=O)(=O)O)c45)ccc3C)c2)c1 [Suramin]
fibronectin expression in kidney [1]: slight reduction | α-SMA expression in kidney [1]: slight reduction | fibronectin expression in kidney [2]: further inhibition | α-SMA expression in kidney [2]: further inhibition | collagen 1 expression in kidney (5 mg/kg single dose, day 7): observed effect | fibronectin expression in kidney [3]: complete blockade | α-SMA expression in kidney [3]: significant, but incomplete, suppression | collagen 1 expression in kidney (10 mg/kg single dose, day 7): greater inhibition | suppression of fibronectin expression in kidney [4]: approximately 50% | suppression of α-SMA expression in kidney [4]: approximately 50% | EGF receptor phosphorylation (20 mg/kg single dose, day 7): abolished | ICAM-1 mRNA expression (20 mg/kg single dose, day 7): decreased | IL-1β mRNA expression (20 mg/kg single dose, day 7): decreased | PDGF receptor phosphorylation (20 mg/kg single dose, day 7): abolished | TGF-β1 mRNA expression reduced to (real-time PCR) (20 mg/kg single dose, day 7): 45% | TGF-β1 type I receptor mRNA expression (20 mg/kg single dose, day 7): suppressed its basal expression | TGF-β type II receptor mRNA expression reduced to (real-time PCR) (20 mg/kg single dose, day 7): 94% | TNF-α mRNA expression (20 mg/kg single dose, day 7): decreased | UUO injury-induced phosphorylation of Smad2 (20 mg/kg single dose, day 7): abolished | UUO injury-induced phosphorylation of Smad3 (20 mg/kg single dose, day 7): abolished | collagen 1 expression in kidney (20 mg/kg single dose, day 7): reduced its expression to the basal level | expression level of total ERK1/2 (20 mg/kg single dose, day 7): did not affect | expression level of total STAT3 (20 mg/kg single dose, day 7): did not affect | expression of total EGF receptor (20 mg/kg single dose, day 7): did not have an inhibitory effect | expression of total PDGF receptor (20 mg/kg single dose, day 7): did not have an inhibitory effect | expression of total Smad2 (20 mg/kg single dose, day 7): not affected | expression of total Smad3 (20 mg/kg single dose, day 7): not affected | leukocyte infiltration (naphthol-AS-D-chloroacetate esterase staining) (20 mg/kg single dose, day 7): reduced leukocyte infiltration to basal levels | morphological lesions and interstitial fibrosis (masson trichrome staining) (20 mg/kg single dose, day 7): obvious attenuation | phosphorylation of ERK1/2 (20 mg/kg single dose, day 7): abolished | phosphorylation of STAT3 (20 mg/kg single dose, day 7): abolished | collagen 1 expression in kidney (20 mg/kg single dose, day 21): partially suppressed | α-SMA expression in kidney (20 mg/kg vs 10 mg/kg i.p. single dose, day 7): did not further reduce | effective doses of suramin (applicant's UUO and remnant kidney studies): 5 to 10 mg/kg
